In patent publication US20200038513A1, “MODULATORS OF FAK PROTEOLYSIS AND ASSOCIATED METHODS OF USE” (ARVINAS OPERATIONS, INC., priority 2018, published 2020):
Like-named read-outs stand apart in the source and are kept apart here.

Assays:
[1] = PPB; assay type: in vitro ADME; conditions: plasma
[2] = Pharmacokinetics of intraperitoneal or intravenous injection in CD1 mice; assay type: in vivo; conditions: for Conc. (ng/mL) Mouse 1 / Conc. (ng/mL) Mouse 2 / Conc. (ng/mL) Mouse 3 / concentration at 0.25 h / concentration at 0.5 h / concentration at 1 h / concentration at 2 h / concentration at 4 h / concentration at 8 h / concentration at 0.033 h / concentration at 0.083 h: CD1 mice plasma; for concentration at 0.25 h / concentration at 0.5 h / concentration at 1 h / concentration at 2 h / concentration at 4 h / concentration at 8 h / AUC(0-t) / half-life / concentration at 0.033 h / concentration at 0.083 h: male, CD1, mouse, plasma
Summary of the method: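 Male CD1 mice, 6-8 weeks old, 3 per group, dosed IV (5 s injection; 10% HP-b-CD, 40 mM sodium acetate, 40 mM NaCl, pH 4.5) or IP (5% EtOH, 5% Solutol HS15 in D5W). Serial dorsal metatarsal vein blood, terminal heart puncture; plasma analysed by LC/MS/MS after acetonitrile precipitation, calibration 1-2000 ng/mL.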

[3] = ip, 10 mg/kg, IP 10 mg/kg, read-out: Conc. (ng/mL) Mouse 1
[4] = ip, 10 mg/kg, IP 10 mg/kg, read-out: Conc. (ng/mL) Mouse 2
[5] = ip, 10 mg/kg, IP 10 mg/kg, read-out: Conc. (ng/mL) Mouse 3
[6] = ip, 10 mg/kg, IP 10 mg/kg, read-out: Mean
[7] = iv, 1 mg/kg, IV 1.0 mg/kg, read-out: Conc. (ng/mL) Mouse 1
[8] = iv, 1 mg/kg, IV 1.0 mg/kg, read-out: Conc. (ng/mL) Mouse 2
[9] = iv, 1 mg/kg, IV 1.0 mg/kg, read-out: Conc. (ng/mL) Mouse 3
[10] = iv, 1 mg/kg, IV 1.0 mg/kg, read-out: Mean

## Cc1ncsc1-c1ccc(CNC(=O)[C@@H]2C[C@@H](O)CN2C(=O)[C@@H](NC(=O)CCOCCOc2ccc(Nc3ncc(C(F)(F)F)c(NCc4cccc(N(C)S(C)(=O)=O)c4)n3)cc2)C(C)(C)C)cc1 [Compound 102, (2S,4R)-1-((S)-3,3-dimethyl-2-(3-(2-(4-((4-((3-(N-methylmethylsulfonamido)benzyl)amino)-5-(trifluoromethyl)pyrimidin-2-yl)amino)phenoxy)ethoxy)propanamido)butanoyl)-4-hydroxy-N-(4-(4-methylthiazol-5-yl)benzyl)pyrrolidine-2-carboxamide]
[1]
  fraction unbound: 0.0066
[2]; IP 10 mg/kg, 24 h
  Conc. (ng/mL) Mouse 1: BLOQ
  Conc. (ng/mL) Mouse 2: BLOQ
  Conc. (ng/mL) Mouse 3: BLOQ
[2]; IV 1.0 mg/kg, 4 h
  Conc. (ng/mL) Mouse 1: BLOQ
  Conc. (ng/mL) Mouse 2: BLOQ
[2]; IV 1.0 mg/kg, 8 h
  Conc. (ng/mL) Mouse 1: BLOQ
  Conc. (ng/mL) Mouse 2: BLOQ
  Conc. (ng/mL) Mouse 3: BLOQ
[2]; IV 1.0 mg/kg, 24 h
  Conc. (ng/mL) Mouse 1: BLOQ
  Conc. (ng/mL) Mouse 2: BLOQ
  Conc. (ng/mL) Mouse 3: BLOQ
[2]; [3]
  concentration at 0.25 h: 521 ng/mL
  concentration at 0.5 h: 674 ng/mL
  concentration at 1 h: 2540 ng/mL
  concentration at 2 h: 1690 ng/mL
[2]; [4]
  concentration at 0.25 h: 432 ng/mL
  concentration at 0.5 h: 546 ng/mL
  concentration at 1 h: 2130 ng/mL
  concentration at 2 h: 1070 ng/mL
[2]; [5]
  concentration at 0.25 h: 338 ng/mL
  concentration at 0.5 h: 551 ng/mL
  concentration at 1 h: 2120 ng/mL
  concentration at 2 h: 1700 ng/mL
[2]; [6]
  concentration at 0.25 h: 431 ng/mL
  concentration at 0.5 h: 591 ng/mL
  concentration at 1 h: 2260 ng/mL
  concentration at 2 h: 1490 ng/mL
[2]; ip, 10 mg/kg, IP 10 mg/kg, 4 h, read-out: Conc. (ng/mL) Mouse 1
  concentration at 4 h: 560 ng/mL
[2]; ip, 10 mg/kg, IP 10 mg/kg, 4 h, read-out: Conc. (ng/mL) Mouse 2
  concentration at 4 h: 529 ng/mL
[2]; ip, 10 mg/kg, IP 10 mg/kg, 4 h, read-out: Conc. (ng/mL) Mouse 3
  concentration at 4 h: 559 ng/mL
[2]; ip, 10 mg/kg, IP 10 mg/kg, 4 h, read-out: Mean
  concentration at 4 h: 549 ng/mL
[2]; ip, 10 mg/kg, IP 10 mg/kg, 8 h, read-out: Conc. (ng/mL) Mouse 1
  concentration at 8 h: 36.4 ng/mL
[2]; ip, 10 mg/kg, IP 10 mg/kg, 8 h, read-out: Conc. (ng/mL) Mouse 2
  concentration at 8 h: 92.3 ng/mL
[2]; ip, 10 mg/kg, IP 10 mg/kg, 8 h, read-out: Conc. (ng/mL) Mouse 3
  concentration at 8 h: 124 ng/mL
[2]; ip, 10 mg/kg, IP 10 mg/kg, 8 h, read-out: Mean
  concentration at 8 h: 84 ng/mL
[2]; ip, 10 mg/kg, read-out: AUClast (h * ng/mL) IP
  AUC(0-t): 6260 ng·h/mL
[2]; ip, 10 mg/kg, read-out: T ½ (h) IP (converted)
  half-life: 1.46 h
[2]; [7]
  concentration at 0.033 h: 1920 ng/mL
  concentration at 0.083 h: 249 ng/mL
  concentration at 0.25 h: 55.9 ng/mL
  concentration at 0.5 h: 23.7 ng/mL
  concentration at 1 h: 11.8 ng/mL
  concentration at 2 h: 6.9 ng/mL
[2]; [8]
  concentration at 0.033 h: 1820 ng/mL
  concentration at 0.083 h: 368 ng/mL
  concentration at 0.25 h: 67.4 ng/mL
  concentration at 0.5 h: 33.2 ng/mL
  concentration at 1 h: 16.7 ng/mL
  concentration at 2 h: 9.2 ng/mL
[2]; [9]
  concentration at 0.033 h: 1850 ng/mL
  concentration at 0.083 h: 333 ng/mL
  concentration at 0.25 h: 71.8 ng/mL
  concentration at 0.5 h: 37.6 ng/mL
  concentration at 1 h: 18.4 ng/mL
  concentration at 2 h: 6.75 ng/mL
[2]; [10]
  concentration at 0.033 h: 1860 ng/mL
  concentration at 0.083 h: 317 ng/mL
  concentration at 0.25 h: 65.1 ng/mL
  concentration at 0.5 h: 31.5 ng/mL
  concentration at 1 h: 15.6 ng/mL
  concentration at 2 h: 7.62 ng/mL
[2]; iv, 1 mg/kg, IV 1.0 mg/kg, 4 h, read-out: Conc. (ng/mL) Mouse 3
  concentration at 4 h: 2.09 ng/mL
[2]; iv, 1 mg/kg, read-out: AUClast (h * ng/mL) IV
  AUC(0-t): 264 ng·h/mL
[2]; iv, 1 mg/kg, read-out: T ½ (h) IV (converted)
  half-life: 0.905 h
